Values after ≈ are worked out from the molar mass of the structure shown.
How the values were obtained:
[1] = molecular target: T1, Mineralocorticoid receptor (Homo sapiens, UniProt P08235)
T1 sequence (P08235 whole entry): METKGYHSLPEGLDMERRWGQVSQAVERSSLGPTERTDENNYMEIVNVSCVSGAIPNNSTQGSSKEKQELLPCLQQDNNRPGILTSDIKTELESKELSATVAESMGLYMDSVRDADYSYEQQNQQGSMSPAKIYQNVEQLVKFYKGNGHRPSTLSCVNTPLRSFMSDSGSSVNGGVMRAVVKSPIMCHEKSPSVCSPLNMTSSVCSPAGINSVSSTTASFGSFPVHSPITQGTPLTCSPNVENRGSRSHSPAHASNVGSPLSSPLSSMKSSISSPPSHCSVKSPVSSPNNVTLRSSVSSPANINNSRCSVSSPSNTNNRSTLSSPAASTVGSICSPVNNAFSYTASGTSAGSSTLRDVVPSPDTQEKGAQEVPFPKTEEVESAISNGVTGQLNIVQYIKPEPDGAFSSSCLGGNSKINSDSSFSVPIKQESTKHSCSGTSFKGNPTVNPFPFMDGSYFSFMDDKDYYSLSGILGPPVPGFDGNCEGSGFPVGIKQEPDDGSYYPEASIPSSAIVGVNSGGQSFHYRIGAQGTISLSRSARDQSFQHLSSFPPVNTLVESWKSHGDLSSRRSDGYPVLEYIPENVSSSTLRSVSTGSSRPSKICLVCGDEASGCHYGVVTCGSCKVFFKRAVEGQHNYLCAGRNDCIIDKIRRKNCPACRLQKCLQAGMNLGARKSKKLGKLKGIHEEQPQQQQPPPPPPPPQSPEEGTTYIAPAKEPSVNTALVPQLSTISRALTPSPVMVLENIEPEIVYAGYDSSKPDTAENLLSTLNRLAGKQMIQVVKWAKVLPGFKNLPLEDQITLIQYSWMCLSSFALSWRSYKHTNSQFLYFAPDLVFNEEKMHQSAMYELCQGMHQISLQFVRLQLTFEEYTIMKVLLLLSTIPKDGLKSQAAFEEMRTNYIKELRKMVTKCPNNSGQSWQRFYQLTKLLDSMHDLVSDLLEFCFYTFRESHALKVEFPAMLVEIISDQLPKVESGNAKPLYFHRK
Description: Displacement of [3H]-aldosterone to human mineralocorticoid receptor LBD by radiometric binding assay

[2] = Octanol-water partitioning co-efficient, log D of the compound at pH 7.4 by LC/MS/MS analysis; type: physicochemical
[3] = molecular target: T1, Mineralocorticoid receptor; remark: listed apart in the source
Description: Antagonist activity at gal4-fused human mineralocorticoid receptor LBD expressed in UAS-MR-bla HEK293 cells by luciferase reporter gene assay

[4] = Kinetic solubility of compound at pH 7.4 after 24 hrs by shake-flask assay; type: physicochemical; conditions: buffer, read-out: -log(solubility) (converted)
[5] = Intrinsic clearance in human liver microsomes at 1 uM measured up to 30 mins in presence of NADPH by LC-MS/MS analysis; type: ADME, Microsome; conditions: read-out: CLH
[6] = Intrinsic clearance in human hepatocytes assessed per million cells at 1 uM measured up to 120 mins in presence of NADPH by LC-MS/MS analysis; type: ADME, cell-based, Hepatocyte; conditions: read-out: CLH
Glucocorticoid receptor = molecular target: T2, Glucocorticoid receptor (Homo sapiens, UniProt P04150)
T2 sequence (P04150 whole entry): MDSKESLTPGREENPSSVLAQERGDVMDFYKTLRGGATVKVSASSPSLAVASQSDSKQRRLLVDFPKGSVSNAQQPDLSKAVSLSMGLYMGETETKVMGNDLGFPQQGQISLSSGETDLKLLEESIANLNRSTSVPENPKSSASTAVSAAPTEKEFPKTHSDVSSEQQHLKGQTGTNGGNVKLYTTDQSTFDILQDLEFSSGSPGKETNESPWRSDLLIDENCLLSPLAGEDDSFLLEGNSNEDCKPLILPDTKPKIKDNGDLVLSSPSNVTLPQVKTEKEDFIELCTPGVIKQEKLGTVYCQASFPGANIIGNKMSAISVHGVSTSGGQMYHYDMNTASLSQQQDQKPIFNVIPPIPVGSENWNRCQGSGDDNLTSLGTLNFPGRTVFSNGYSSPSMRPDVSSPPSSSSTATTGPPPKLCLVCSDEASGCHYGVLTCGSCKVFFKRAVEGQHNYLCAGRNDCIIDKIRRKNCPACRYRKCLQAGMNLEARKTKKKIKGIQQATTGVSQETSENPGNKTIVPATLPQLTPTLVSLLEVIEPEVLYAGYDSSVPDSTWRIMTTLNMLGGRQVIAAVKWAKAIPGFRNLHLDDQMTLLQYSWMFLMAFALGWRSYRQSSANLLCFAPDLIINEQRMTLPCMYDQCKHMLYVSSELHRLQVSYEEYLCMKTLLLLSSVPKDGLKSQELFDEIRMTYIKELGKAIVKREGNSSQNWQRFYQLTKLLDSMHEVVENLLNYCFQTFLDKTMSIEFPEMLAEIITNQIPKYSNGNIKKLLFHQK
Description: Binding affinity to recombinant human GR LBD by fluormone GS red-fluorescence polarization assay

[7] = Apparent permeability in human Caco2 cells at 10 uM after 45 to 120 mins by LC/MS/MS analysis; type: ADME, cell-based; conditions: Caco-2

Row | Compound | Ki [1] [µM] | logD [2] | IC50 [3] [µM] | solubility kinetic at 24 h [4] [µM] | microsomal CLint at 1 µM [5] [µL/min/mg] | hepatocyte CLint at 1 µM [6] [µL/min/1e6 cells] | Ki (Glucocorticoid receptor) [µM] | Papp at 10 µM [7] [nm/s]
1 | C[C@@H]1CCc2cc(F)ccc2N1C(=O)c1ccc2c(c1)NC(=O)CO2 | 6.31 | 2.9 | > 10 | 100 (≈ 34 µg/mL) | 70 |  |  | 
2 | CC1CCc2ccccc2N1C(=O)c1ccc2c(c1)NC(=O)CO2 (racemic) | 0.794 | 2.7 | 1.58 | 50.1 (≈ 16.2 µg/mL) | 128 |  |  | 
3 | NC(=O)C[C@H]1COc2cc(F)c(C3CC3)cc2N1C(=O)c1ccc2c(c1)NC(=O)CO2 | 0.00316 | 2 | 0.0794 |  |  | < 2 | 0.00251 | 
4 | Cc1ccc2c(c1)OC[C@](C)(CS(C)(=O)=O)N2C(=O)c1ccc2c(c1)NC(=O)CO2 | 0.0158 | 1.8 | 0.0631 |  |  | 60 | 1 | 380
5 | CNC(=O)C[C@H]1COc2cc(F)c(CC(C)C)cc2N1C(=O)c1ccnc(NC(N)=O)c1 | 0.00794 | 2.2 | 0.1 |  |  | 6.1 | 0.126 | 
6 | CNC(=O)C[C@H]1COc2ccccc2N1C(=O)c1ccc2c(c1)NC(=O)CO2 |  | 1.1 |  |  |  | < 1 | 3.16 | 68
7 | CNC(=O)C[C@H]1COc2cc(C(F)(F)F)ccc2N1C(=O)c1ccc2c(c1)NC(=O)CO2 | 0.0126 | 2.4 | 0.0794 |  |  | 3 | 0.398 | 190
8 | CNC(=O)C[C@H]1COc2cc(C#N)ccc2N1C(=O)c1ccc2c(c1)NC(=O)CO2 | 1 | 0.9 | 6.31 |  |  | < 1 | > 12.6 | 15
9 | CCNC(=O)CC1COc2cc(F)ccc2N1C(=O)c1ccc2c(c1)NC(=O)CO2 (racemic) | > 10 | 1.6 | > 10 |  |  | 3 | > 15.8 | 100
10 | CC1CCc2ccccc2N1S(=O)(=O)c1ccc2c(c1)NC(=O)CO2 (racemic) | 2 | 3.3 | 5.01 | 20 (≈ 7.15 µg/mL) | > 300 |  |  | 
11 | NS(=O)(=O)C[C@H]1COc2cc(F)ccc2N1C(=O)c1ccc2c(c1)NCCO2 | 0.0398 | 1.3 | 0.2 |  |  | < 1 | 1.26 | 
12 | N#CC[C@H]1COc2ccccc2N1C(=O)c1ccc2c(c1)NC(=O)CO2 | 0.501 | 1.5 | 3.98 | 794 (≈ 277 µg/mL) | 34 |  |  | 
13 | NS(=O)(=O)C[C@H]1COc2cc(F)ccc2N1C(=O)c1ccc2cc[nH]c2c1 | 0.0501 | 2.3 | 0.251 |  |  | 3.6 | 0.631 | 
14 | CNC(=O)C[C@H]1COc2cc(F)c(OC(C)C)cc2N1C(=O)c1ccc2c(c1)NC(=O)CO2 | 0.01 | 1.8 | 0.2 |  |  | < 2 | 0.0794 | 
15 | CC(C)Cc1cc2c(cc1Cl)OC[C@H](CC(N)=O)N2C(=O)c1ccc2c(c1)NC(=O)CO2 | 0.000501 | 3.3 | 0.00251 |  |  | 11 | 0.00126 | 
16 | C[C@@H]1CN(c2ccc3c(n2)NC(=O)CO3)[C@H](c2ccccc2)CO1 |  | 2.7 |  |  |  |  |  | 

Reference: ChEMBL document CHEMBL4422622, “Identification of Mineralocorticoid Receptor Modulators with Low Impact on Electrolyte Homeostasis but Maintained Organ Protection” (J Med Chem, 2019)
